Assays:
[1] = system: Fresh human hepatocytes
Method: In this Example, testing was carried out to determine the effect of different concentrations of DMSO (0 to 2%) on the cell plateability/attachment using the inventive, direct NS plating method.
Fresh human hepatocytes having 78% viability, corresponding generally to customary thawed cell viability, were plated with DMSO in concentrations ranging from 0 to 2%. The cells were plated without Percoll density gradient centrifugation for both classical and NS methods. The cell seeding density was 0.37 million cells/well (MW24 plate) for both classical & NS methods. The cells were evaluated for cell morphology, plateability, and metabolic activity.
The DMSO, as a cryoprotectant included in freezing medium, has been tested at final concentrations up to 2% in the cell plating medium.

[2] = system: cells; settings: above 4° C.; cited from earlier work

C[S+](C)[O-] [DMSO, dimethyl sulfoxide]
maximum tolerated DMSO percentage in hepatocyte-NS plating medium for cell attachment [1]: less than 1 % (v/v) | DMSO concentration demonstrated to be toxic [2]: up to 2%

Reference: US10292382B2, “No-spin cryopreservation technique and resulting products” (Biopredic International, priority 2014, dated 2019)
